Assay results: patent US20210238177A1, “CRYSTALLINE FORMS OF 3-((1R,5S,9r)-9-ETHOXY-3-AZABICYCLO[3.3.1]NONAN-9-YL)-BENZAMIDE AND SALT FORMS THEREOF” (Alkermes, Inc., priority 2020, published 2021)

Assay: Dynamic Vapor Sorption (DVS) with PXRD of the material after DVS
Format: physicochemical
Protocol: DVS analysis was conducted using a TA Instruments TGA Q5000 SA. DVS was run at 25 degrees C. The sample was pre-dried at 25 degrees C. and 0% relative humidity (% RH) until the dm/dt was 0.01% for up to 300 minutes. Adsorption and desorption isotherms were measured by ramping the humidity from 0% RH to 90% RH to 0% RH at 10% RH step intervals with a stability criterion of dm/dt=0.01% or 300 minutes unless otherwise noted. Data analysis was performed using Universal Analysis 2000 Version 4.5 A.

CCOC1(c2cccc(C(N)=O)c2)C2CCCC1CNC2.Cl [hydrochloride Form B, 3-((1R,5S,9r-9-ethoxy-3-azabicyclo-[3.3.1]nonan-9-yl)-benzamide hydrochloride]
relative stability of HCl salt solid forms (conclusion based on the DVS experiment): most stable HCl salt solid form

CCOC1(c2cccc(C(N)=O)c2)C2CCCC1CNC2.Cl [hydrochloride Form D, 3-((1R,5S,9r-9-ethoxy-3-azabicyclo-[3.3.1]nonan-9-yl)-benzamide hydrochloride]
water (DVS weight gain) (25 degrees C, first cycle, up to 50% RH): approximately 0.5% | solid form after DVS (PXRD pattern) (after two cycle DVS, 0% RH to 90% RH to 0% RH, 25 degrees C): consistent with hydrochloride Form B
